{"source": "patent US9371330B2", "about": "“Substituted pyrazino[1,2-a]pyrimidines useful as CBP/catenin antagonists for enhancing asymmetric division of somatic stem cells” (University of Southern California, priority 2011, dated 2016)", "key": {"[1]": {"assay": "topical treatment of pregnant mice throughout pregnancy, offspring outcome", "assay_type": "in vivo, mouse", "conditions": "mothers treated topically 0.5M", "excerpt": "Acute Promyelocytic Leukemia (APL) is unique among myeloid leukemias due to its sensitivity to all-trans retinoic acid (ATRA), a derivative of vitamin A. Treatment with ATRA dissociates the NCOR-HDACL complex from RAR and allows DNA transcription and differentiation of the immature leukemic promyelocytes into mature granulocytes by targeting the oncogenic transcription factor and its aberrant action. […] A large number of scientific studies have also investigated a possible role for vitamin D in cancer prevention, including colon, prostate, breast, pancreatic and skin cancer. […] However, there are also reports of synergistic effects on the activation of gene expression by ATRA and Wnt for example (47). […] This is the same region of these coactivator proteins (i.e., CBP and p300) that partners with catenin (both beta and gamma) and the CBP/catenin antagonists (e.g., ICG-001) also bind to this region. These nuclear receptor ligands have many of the same differentiating effects on stem cell populations that applicant has observed with specific CBP/catenin antagonists. Although, both Vitamin A and D are required during development and have many beneficial health effects in adulthood, both are teratogenic at high levels. […]"}, "[2]": {"tested_on": "cerebral deposition of Aβ", "assay": "Aβ deposition in penta-transgenic mouse model of Alzheimer's disease", "assay_type": "in vivo", "conditions": "50 mg/kg/day, 2 months, immunohistochemistry, vs saline", "protocol": "Applicant utilized a penta-transgenic mouse model of AD, which normally develops massive cerebral deposition of Aβ starting at 6 weeks of age. These mice were treated with either (A) ICG-001 (50 mg/kg/day) or (B) saline for 2 months. […] However, the effects of PS-1 mutations on the stability of beta-catenin, TCF/beta-catenin signaling, and thereby its potential role in AD remain controversial. […] In the CNS, EpB2 expression is associated with axonal guidance (16). […] In initial in vivo studies, applicant treated penta-transgenic mice that over express mutant APP(695) (Swedish (K670N,M671L), Florida ([…]) and London (V717I)) and PS-1 (M146L and L286V) mutations with ICG-001 for 2 months (months 2-4). These mice normally develop massive cerebral deposition of Aβ starting at 6 weeks of age."}, "MDA-MB-231 cells": {"tested_on": "MDA-MB-231 cells", "assay": "MDA-MB-231 stem/tumor initiating cell markers", "assay_type": "cell-based", "excerpt": "This phenotype CD44^hi, CD24^lo has been associated with a subpopulation of cells that behave like a breast cancer stem/tumor initiating cell population (51). […] Beyond reduction of survivin message level, there is a gene expression profile consistent with the occurrence of a mesenchymal to epithelial (MET) transition (i.e. decreased expression of twist, vimentin and S100A4 and an increase in E-cadherin expression). Recently, there have been a number of papers, which have correlated epithelial to mesenchymal transition (EMT) with a CSC phenotype (52). EMT is a normal physiologic process that is important in development and in adults, for example in wound healing, but pathophysiologically is associated with tumor metastasis and organ fibrosis (see later discussion on fibrosis). Specific CBP/catenin antagonists can reverse this aberrant EMT in vivo (EMT also plays a critical role in the skin in hair loss etc. J Dermatol Sci. 2011 January; 61(1):7-13. Epub 2010 Dec. 5; epithelial-mesenchymal transition (EMT) plays important roles not only in the morphogenesis but also in wound repair, tissue fibrosis and cancer progression. Recently, regulatory mechanism of this process has been elaborately elucidated. EMT can be a new therapeutic target for treating skin ulcer, fibrosing alopecia, and malignant cutaneous cancers, including squamous cell carcinoma and melanoma)."}, "[3]": {"target": "CBP/beta-catenin interaction (Homo sapiens, UniProt Q92793)", "sequence (Q92793 1-111)": "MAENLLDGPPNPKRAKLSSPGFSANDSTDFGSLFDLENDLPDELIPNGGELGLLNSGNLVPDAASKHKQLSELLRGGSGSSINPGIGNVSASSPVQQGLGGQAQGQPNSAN", "assay": "disruption of CBP/beta-catenin interaction", "assay_type": "binding", "excerpt": "Applicant next mapped the binding domains between CBP and beta-catenin, as well as between p300 and beta-catenin. The C-terminal trans-activating region of beta-catenin (647-781) interacted with the same 1-111 amino acids of both CBP and p300 (23). However, only the interaction between CBP and beta-catenin was disrupted by ICG-001, and not the p300/beta-catenin interaction."}, "[4]": {"tested_on": "NOD/SCIDIL2R gamma-/- mice", "assay": "leukemia mouse model: hair growth and wound healing", "assay_type": "in vivo", "conditions": "ICG-001 50 mg/kg/d with VDL vs VDL only, 50 mg/kg/day", "protocol": "NOD/SCIDIL2R gamma−/− mice were shaved and sublethally irradiated prior intravenous injection of 50,000 cells per animal. Leukemic animals were treated with a combination of intraperitoneally administered vincristine/dexamethasone/L-Aspariginase (VDL) and ICG-001 (50 mg/kg/d), which was delivered via subcutaneous osmotic pumps to ensure stable plasma levels, with VDL only as a control for 20 days. The animals were checked periodically for survival, hair growth, and wound healing."}, "aquaporin 1": {"tested_on": "aquaporin 1", "assay": "ex vivo human skin assay, qRT-PCR of aquaporin 1", "assay_type": "cell-based", "conditions": "24 hrs; 5 uM ICG-001, 5 uM methylated ICG-001, 1 ug/ml RA", "protocol": "Methods. Ex Vivo human skin assay culture conditions were based upon a paper by Varani J et al Experimental and Molecular Pathology, 2004.\nBriefly, human skin (surgical waste from plastic surgery procedures) was obtained and the subcutaneous layer of fat was trimmed manually with a scalpel. The skin was then cut into small fragments about 2 mm square and placed in 6 well plates. 1 ml of keratinocyte culture medium (Gibco 10724-011) with 1% P/S (penstrep antibiotic) was added to each well. The epidermis, bathed in media was placed facing up. On the next day (overnight culture in the media above), the skin fragments were transferred to fresh wells that contained either 5 uM ICG-001, 5-uM methylated ICG-001 or 1 ug/ml of retinoic acid (RA). After 24 hrs, skin samples in culture were removed for RNA isolation and qRT-PCR analysis of genes of interest (e.g. elastin (a gene involved in skin appearance and pliability (e.g., wrinkling) and aquaporin 1, which is involved with hydration."}}, "note": "“Also recorded” adds a separate entry of the source."}
{"smiles": "O=C1[C@H](Cc2ccc(O)cc2)N2C(=O)CCN(C(=O)NCc3ccccc3)[C@H]2CN1Cc1cccc2ccccc12", "note": "[ICG-001]", "values": [{"measurement": "weight and size of offspring at 6 weeks of age", "setting": "[1]; ~E0.5 to ~E20", "value": "normal weight and size"}, {"measurement": "effects on germ cell populations of offspring", "setting": "[1]; second generation bred", "value": "no deleterious effects on germ cell populations"}, {"measurement": "amyloid plaque formation / Aβ staining", "setting": "[2]", "value": "significant decrease in amyloid plaque formation; also recorded: decrease in Aβ staining"}, {"measurement": "CD44 expression", "setting": "MDA-MB-231 cells", "value": "decreasing CD44 expression"}, {"measurement": "side population (SP) and ALDH activity", "setting": "MDA-MB-231 cells", "value": "dramatically decreases the side population (SP) and ALDH activity"}, {"measurement": "cell surface CD24 expression", "setting": "MDA-MB-231 cells; 24 h", "value": "significantly increased the expression of cell surface CD24"}, {"measurement": "disruption of the CBP/beta-catenin interaction", "setting": "[3]", "value": "disrupted"}, {"measurement": "hair growth on shaved area", "setting": "[4]; within two weeks", "value": "had regrown their hair; also recorded: substantial hair growth covering the entire previously shaved area"}, {"measurement": "healing of pump insertion wounds", "setting": "[4]", "value": "had substantial improved; also recorded: heal quicker"}, {"measurement": "expression of aquaporin 1", "setting": "aquaporin 1", "value": "increase"}]}
